Molecular target: HCV RNA-dependent RNA polymerase (NS5B) (Hepatitis C virus genotype 1b (isolate BK) (HCV), UniProt P26663)
Test: RNA-Dependent RNA HCV NS5B (polymerase) Assay and IC50 Determination
Type: biochemical
Settings: purified HCV NS5B polymerase, polyA:U16 substrate, 32P-UTP incorporation; read-out: IC50
Method in brief: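 Purified NS5B was incubated with 0.5 uM polyA:U16, 10 μM UTP plus ^32P-UTP in 50 mM Hepes-KOH pH 7.5, 5 mM MgCl2, 5 mM DTT, 2% glycerol and 0.01% Triton X-100. Inhibitor reactions ran 60 min at 37° C, and radiolabelled RNA product was quantified after filter capture. IC50 values were obtained from concentration series.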

Sequence of HCV RNA-dependent RNA polymerase (NS5B) (P26663 2420-3010): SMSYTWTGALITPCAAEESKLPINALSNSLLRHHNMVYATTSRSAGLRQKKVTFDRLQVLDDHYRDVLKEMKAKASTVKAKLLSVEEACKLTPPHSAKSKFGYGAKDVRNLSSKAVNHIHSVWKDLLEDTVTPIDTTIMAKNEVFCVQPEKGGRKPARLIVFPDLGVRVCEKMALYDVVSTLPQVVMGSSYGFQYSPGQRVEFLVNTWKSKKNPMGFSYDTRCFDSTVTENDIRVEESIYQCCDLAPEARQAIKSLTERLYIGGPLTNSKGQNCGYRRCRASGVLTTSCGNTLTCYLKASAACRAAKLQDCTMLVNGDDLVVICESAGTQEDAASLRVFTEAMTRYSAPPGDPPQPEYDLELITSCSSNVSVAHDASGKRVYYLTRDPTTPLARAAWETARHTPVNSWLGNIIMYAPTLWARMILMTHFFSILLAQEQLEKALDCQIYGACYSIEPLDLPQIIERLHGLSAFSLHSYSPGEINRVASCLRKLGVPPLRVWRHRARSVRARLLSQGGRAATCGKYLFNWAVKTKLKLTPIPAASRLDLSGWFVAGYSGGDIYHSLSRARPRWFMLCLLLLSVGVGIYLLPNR

| SMILES | IC50 [µM] |
| --- | --- |
| CNC(=O)c1c(-c2ccc(F)cc2)oc2cc(N(CC(=O)NCC(=O)NCCCC(C)C(=O)O)S(C)(=O)=O)c(C3CC3)cc12 (stereo not drawn) [Compound 10-4B, 5-[2-(2-{[5-Cyclopropyl-2-(4-fluoro-phenyl)-3-methylcarbamoyl-benzofuran-6-yl]-methanesulfonyl-amino}-acetylamino)-acetylamino]-2-methyl-pentanoic Acid] | > 1 |
| CNC(=O)c1c(-c2ccc(F)cc2)oc2cc(N(CCOCCOCCOCCCCCc3cccc(C(=O)CC(=O)C(=O)O)c3)S(C)(=O)=O)c(C3CC3)cc12 [Compound 30-15, 4-[3-(5-{2-[2-(2-{[5-Cyclopropyl-2-(4-fluoro-phenyl)-3-methylcarbamoyl-benzofuran-6-yl]-methanesulfonyl-amino}-ethoxy)-ethoxy]-ethoxy}-pentyl)-phenyl]-2,4-dioxo-butyric acid] | > 1 |
| CNC(=O)c1c(-c2ccc(F)cc2)oc2cc(N(CCCOCCOCc3cccc(C(=O)/C=C(\O)C(=O)O)c3)S(C)(=O)=O)c(C3CC3)cc12 [Compound 03-8A, 4-{3-[2-(3-{[5-Cyclopropyl-2-(4-fluoro-phenyl)-3-methylcarbamoyl-benzofuran-6-yl]-methanesulfonyl-amino}-propoxy)-ethoxymethyl]-phenyl}-2-hydroxy-4-oxo-but-2-enoic Acid] | 0.1 to 1 |
| CCOC(=O)c1cc(COCCOCCN(c2cc3oc(-c4ccc(F)cc4)c(C(=O)NC)c3cc2C2CC2)S(C)(=O)=O)ccc1F [Compound 30-14, 5-[2-(2-{[5-Cyclopropyl-2-(4-fluoro-phenyl)-3-methylcarbamoyl-benzofuran-6-yl]-methanesulfonyl-amino}-ethoxy)-ethoxymethyl]-2-fluoro-benzoic acid ethyl ester] | > 1 |
| CNC(=O)c1c(-c2ccc(F)cc2)oc2cc(N(CCOCCOCCOCCOCc3ccc(C(=O)/C=C(\O)C(=O)O)cc3)S(C)(=O)=O)c(C3CC3)cc12 [Compound 02-10H, 4-[4-(2-{2-[2-(2-{[5-Cyclopropyl-2-(4-fluoro-phenyl)-3-methylcarbamoyl-benzofuran-6-yl]-methanesulfonyl-amino}-ethoxy)-ethoxy]-ethoxy}-ethoxymethyl)-phenyl]-2-hydroxy-4-oxo-but-2-enoic Acid] | > 1 |
| CNC(=O)c1c(-c2ccc(F)cc2)oc2cc(N(CCOCCOCCOCC(=O)OC(C)(C)C)S(C)(=O)=O)c(C3CC3)cc12 [Compound 23-5A, {2-[2-(2-{[5-Cyclopropyl-2-(4-fluoro-phenyl)-3-methylcarbamoyl-benzofuran-6-yl]-methanesulfonyl-amino}-ethoxy)-ethoxy]-ethoxy}-acetic Acid Tert-butyl Ester] | > 1 |
| CNC(=O)c1c(-c2ccc(F)cc2)oc2cc(N(CCOCCOCCOCc3ccc(C(=O)OC)cc3)S(C)(=O)=O)c(C3CC3)cc12 [Compound 06-6E, 4-{2-[2-(2-{[5-Cyclopropyl-2-(4-fluoro-phenyl)-3-methylcarbamoyl-benzofuran-6-yl]-methanesulfonyl-amino}-ethoxy)-ethoxy]-ethoxymethyl}-benzoic acid methyl ester] | 0.1 to 1 |
| CNC(=O)c1c(-c2ccc(F)cc2)oc2cc(N(CCOCCOCCOCCOCCOCCOCc3cccc(C(C)=O)c3)S(C)(=O)=O)c(C3CC3)cc12 [Compound 02-8E, 6-[(2-{2-[2-(2-{2-[2-(3-Acetyl-benzyloxy)-ethoxy]-ethoxy}-ethoxy)-ethoxy]-ethoxy}-ethyl)-methanesulfonyl-amino]-5-cyclopropyl-2-(4-fluoro-phenyl)-benzofuran-3-carboxylic Acid Methylamide] | > 1 |
| CNC(=O)c1c(-c2ccc(F)cc2)oc2cc(N(CCOCCOCc3ccc(C(=O)OC)cc3)S(C)(=O)=O)c(C3CC3)cc12 [Compound 06-6B, 4-[2-(2-{[5-Cyclopropyl-2-(4-fluoro-phenyl)-3-methylcarbamoyl-benzofuran-6-yl]-methanesulfonyl-amino}-ethoxy)-ethoxymethyl]-benzoic Acid Methyl Ester] | > 1 |
| CNC(=O)c1c(-c2ccc(F)cc2)oc2cc(N(CCOCCOCCOCCOC)S(C)(=O)=O)c(C3CC3)cc12 [Compound 05-4A, 6-(N-(2,5,8,11-Tetraoxatridecan-13-yl)-methylsulfonamido)-5-cyclopropyl-2-(4-fluorophenyl)-N-methylbenzofuran-3-carboxamide] | > 1 |
| CNC(=O)c1c(-c2ccc(F)cc2)oc2cc(N(CCNC(=O)CNC(=O)CCCC(=O)O)S(C)(=O)=O)c(C3CC3)cc12 [Compound 07-7, 4-{[(2-{[5-Cyclopropyl-2-(4-fluoro-phenyl)-3-methylcarbamoyl-benzofuran-6-yl]-methanesulfonyl-amino}-ethylcarbamoyl)-methyl]-carbamoyl}-butyric Acid] | > 1 |
| CNC(=O)c1c(-c2ccc(F)cc2)oc2cc(N(CCOCCOCc3ccc(Cl)nc3)S(C)(=O)=O)c(C3CC3)cc12 [Compound 19-8B] | < 0.1 |
| CNC(=O)c1c(-c2ccc(F)cc2)oc2cc(N(CCOCCOCCOCCOCc3cccc(C(=O)/C=C(\O)C(=O)O)c3)S(C)(=O)=O)c(C3CC3)cc12 [Compound 02-10C, 4-[3-(2-{2-[2-(2-{[5-Cyclopropyl-2-(4-fluoro-phenyl)-3-methylcarbamoyl-benzofuran-6-yl]-methanesulfonyl-amino}-ethoxy)-ethoxy]-ethoxy}-ethoxymethyl)-phenyl]-2-hydroxy-4-oxo-but-2-enoic Acid] | 0.1 to 1 |
| CNC(=O)c1c(-c2ccc(F)cc2)oc2cc(N(CCOCCOCc3ccc(C(=O)OC)c(C)c3)S(C)(=O)=O)c(C3CC3)cc12 [Compound 18-9A, 4-[2-(2-{[5-Cyclopropyl-2-(4-fluoro-phenyl)-3-methylcarbamoyl-benzofuran-6-yl]-methanesulfonyl-amino}-ethoxy)-ethoxymethyl]-2-methyl-benzoic Acid Methyl Ester] | > 1 |
| CNC(=O)c1c(-c2ccc(F)cc2)oc2cc(N(CCOCCCCCOC(C)C(=O)O)S(C)(=O)=O)c(C3CC3)cc12 (stereo not drawn) [Compound 27-9B, 2-[5-(2-{[5-Cyclopropyl-2-(4-fluoro-phenyl)-3-methylcarbamoyl-benzofuran-6-yl]-methanesulfonyl-amino}-ethoxy)-pentyloxy]-propionic Acid] | 0.1 to 1 |
| CCOC(=O)C(C)OCCOCCOCCN(c1cc2oc(-c3ccc(F)cc3)c(C(=O)NC)c2cc1C1CC1)S(C)(=O)=O (stereo not drawn) [Compound 30-2, 2-{2-[2-(2-{[5-Cyclopropyl-2-(4-fluoro-phenyl)-3-methylcarbamoyl-benzofuran-6-yl]-methanesulfonyl-amino}-ethoxy)-ethoxy]-ethoxy}-propionic acid ethyl ester] | > 1 |
| CNC(=O)c1c(-c2ccc(F)cc2)oc2cc(N(CCOCCOCCOc3ccccc3C(=O)O)S(C)(=O)=O)c(C3CC3)cc12 [Compound 14-7A, 2-{2-[2-(2-{[5-Cyclopropyl-2-(4-fluoro-phenyl)-3-methylcarbamoyl-benzofuran-6-yl]-methanesulfonyl-amino}-ethoxy)-ethoxy]-ethoxy}-benzoic Acid] | < 0.1 |
| CNC(=O)c1c(-c2ccc(F)cc2)oc2cc(N(CCOCCCCOc3cccc(C(=O)CC(=O)C(=O)O)c3)S(C)(=O)=O)c(C3CC3)cc12 [Compound 30-9, 4-{3-[4-(2-{[5-Cyclopropyl-2-(4-fluoro-phenyl)-3-methylcarbamoyl-benzofuran-6-yl]-methanesulfonyl-amino}-ethoxy)-butoxy]-phenyl}-2,4-dioxo-butyric acid] | > 1 |
| CNC(=O)c1c(-c2ccc(F)cc2)oc2cc(N(CCOCCOCCOCCCCc3cccc(C(=O)CC(=O)C(=O)O)c3)S(C)(=O)=O)c(C3CC3)cc12 [Compound 30-16, 4-[3-(4-{2-[2-(2-{[5-Cyclopropyl-2-(4-fluoro-phenyl)-3-methylcarbamoyl-benzofuran-6-yl]-methanesulfonyl-amino}-ethoxy)-ethoxy]-ethoxy}-butyl)-phenyl]-2,4-dioxo-butyric acid] | > 1 |
| CCOC(=O)/C(O)=C/C(=O)c1cccc(COCCOCCOCCOCCN(c2cc3oc(-c4ccc(F)cc4)c(C(=O)NC)c3cc2C2CC2)S(C)(=O)=O)c1 [Compound 02-9C, 4-[3-(2-{2-[2-(2-{[5-Cyclopropyl-2-(4-fluoro-phenyl)-3-methylcarbamoyl-benzofuran-6-yl]-methanesulfonyl-amino}-ethoxy)-ethoxy]-ethoxy}-ethoxymethyl)-phenyl]-2-hydroxy-4-oxo-but-2-enoic Acid Ethyl Ester] | > 1 |
| CNC(=O)c1c(-c2ccc(F)cc2)oc2cc(N(CCOCCOCCOCc3cccc(C(=O)OC)c3)S(C)(=O)=O)c(C3CC3)cc12 [Compound 06-6F, 3-{2-[2-(2-{[5-Cyclopropyl-2-(4-fluoro-phenyl)-3-methylcarbamoyl-benzofuran-6-yl]-methanesulfonyl-amino}-ethoxy)-ethoxy]-ethoxymethyl}-benzoic acid methyl ester] | > 1 |
| CNC(=O)c1c(-c2ccc(F)cc2)oc2cc(N(CC(=O)NCC(=O)NCCCCC(=O)OC)S(C)(=O)=O)c(C3CC3)cc12 [Compound 10-3A, 5-[2-(2-{[5-Cyclopropyl-2-(4-fluoro-phenyl)-3-methylcarbamoyl-benzofuran-6-yl]-methanesulfonyl-amino}-acetylamino)-acetylamino]-pentanoic Acid Methyl Ester] | > 1 |
| CNC(=O)c1c(-c2ccc(F)cc2)oc2cc(N(CCOCCOCCOCc3cccc(C(=O)/C=C(\O)C(=O)O)c3)S(C)(=O)=O)c(C3CC3)cc12 [Compound 02-10B, 4-(3-{2-[2-(2-{[5-Cyclopropyl-2-(4-fluoro-phenyl)-3-methylcarbamoyl-benzofuran-6-yl]-methanesulfonyl-amino}-ethoxy)-ethoxy]-ethoxymethyl}-phenyl)-2-hydroxy-4-oxo-but-2-enoic Acid] | > 1 |
| CNC(=O)c1c(-c2ccc(F)cc2)oc2cc(N(CCCCCOCCCCC(=O)OC(C)(C)C)S(C)(=O)=O)c(C3CC3)cc12 [Compound 28-7A, 5-(5-{[5-Cyclopropyl-2-(4-fluoro-phenyl)-3-methylcarbamoyl-benzofuran-6-yl]-methanesulfonyl-amino}-pentyloxy)-pentanoic Acid Tert-butyl Ester] | > 1 |

— patent US10947210B2 (priority 2015, dated 2021)
